How the values were obtained:
[1] = test system: neuroinflammatory markers (GFAP, CD11b, TNF-α); assay: neuroinflammation studies, hippocampus, Western blotting, prenatal VPA model; format: in vivo, rat
Protocol: At the end of the study, on PND 59, male rats treated with CBDV 20 mg/kg i.p. were sacrificed and the hippocampus was collected 24 hours after the last CBDV injection and stored at −80° C. for evaluation of changes in protein expression of components of the endocannabinoid system (CB1 and CB2 receptors, the endocannabinoid degrading enzymes, FAAH and MAGL and the synthetic enzymes, DAGLα and NAPE-PLD); neuroinflammatory markers (GFAP (astrocytic marker), Iba1 (microglial marker), CD11 b (activated microglial marker), TNF-α (proinflammatory cytokine) and iNOS (inflammatory mediator)); synaptic markers (Synaptophysin (synaptic vesicle protein), PSD-95 (post synaptic density protein) and the neurotrophins, BDNF and IGF by Western blotting.

[2] = test system: Ube3am-/p+ (AS) mice; assay: clasping test in Angelman syndrome mice; format: in vivo, mouse; conditions: chronic treatment (30 days), 20 mg/kg i.p., 10 weeks of age, vs AS vehicle
Protocol: (§1) Heterozygous mice with maternal deficiency of Ube3A (Ube3am−/p+) and wild type (Ube3am+/p+) were purchased from The Jackson Laboratory (Jackson code: B6.12957-Ube3a tm1Alb/J) and maintained in a C57BL/6 background.
(§2) Drugs were dissolved in 1:1:18 ethanol:cremophor:0.9% saline, for intraperitoneal (i.p.) administration. Drug treatment was performed daily for 35 days. CBDV was administered at 20 mg/kg.
Clasping: The clasping test assesses ataxia in mice. Mice were suspended by the base of the tail and their behaviours were recorded for 30 seconds. The time for which the mice clasped their hind limbs was recorded. The time was then scored as follows: 4, 15-30 s, 3, 10-15 s, 2, 5-10 s, 1, 0-5 s and 0.0 s

[3] = test system: Ube3am-/p+ (AS) mice; assay: tail suspension test in Angelman syndrome mice; format: in vivo, mouse; conditions: 20 mg/kg i.p., vs AS vehicle
Protocol: as §1, §2
Tail suspension: The tail suspension test assesses depressive-like behaviour in mice. Mice were individually suspended by the tail on a horizontal bar (50 cm from floor) using adhesive tape placed approximately 4 cm from the tip of the tail. The duration of immobility was recorded in seconds over a period of 6 minutes by a time recorder. Immobility time was defined as the absence of escape-oriented behaviour.

[4] = test system: PCP-treated rats; assay: social interaction test in sub-chronic PCP treated rats; format: in vivo, rat
Protocol: Female hooded-Lister rats were used for this experiment. Rats were housed in groups of 5 under standard laboratory conditions under a 12 hr light: dark cycle, lights on at 0700 hr. Testing was carried out in the light phase.
Rats were randomly assigned to two treatment groups and treated with vehicle, n=20 (distilled water, i.p.) or Phencyclidine hydrochloride (PCP), n=100 (2 mg/kg, i.p. twice daily for 7-days). PCP was dissolved in distilled water. This was followed by a 7-day wash out period before the rats were tested following acute treatment with CBDV, risperidone or vehicle.
Risperidone (0.1 mg/kg) was dissolved in a minimum volume of acetic acid, made up to volume with distilled water and pH adjusted to 6 with 0.1M NaOH and administered via the i.p. route in a volume of 1 ml/kg, 60 min prior to testing.
CBDV at 2, 10 or 20 mg/kg was dissolved in 2:1:17 (Ethanol:Cremofor:Saline 0.9%) and administered via the i.p. route in a volume of 5 ml/kg, 60 min prior to testing.
The social interaction test is performed in an open-field comprising a square box made of Plexiglas (52×52×31 cm) placed 27 cm above the floor on a moveable trolley. The floor of the box is white with black gridlines forming 9 identical squares on it. All other walls are black. A video camera connected to a video recorder and monitor is positioned above the box. The object used for the test consists of a heavy structure made of metal that cannot be displaced by the animals.
The rats were habituated to the test environment and arena prior to the test day. Habituation consists of placing all rats from one cage together in the empty test arena for one hour for three days including the day before the test day.
Pairs of rats, weight matched (15-20 g) and unfamiliar to each other, receiving either no treatment (n=70 “conspecific” rats) or different treatments (PCP and Vehicle; n=10 “tested” rats or PCP+Drug; n=50 “tested” rats) were placed in the test arena together for 10 min and behaviour assessed as described below.
An inanimate object such as an unopened drinks can is also placed in the centre of the arena to measure any differences in interaction of the test animal with an unfamiliar animal as opposed to an unfamiliar object. After each 10 minute trial, the object and arena are cleaned with 10% alcohol in an attempt to remove traces of any olfactory cues. All testing is carried out under standard room illumination levels (70 cd/m2).
Behaviour in both trials was recorded on video for subsequent blind scoring. A behavioural scoring software program (Hindsight, Scientific programming services) is used to score the following parameters: • Investigative sniffing behaviour: sniffing the conspecific's snout or parts of the body including the anogenital region; • Following: rat moves after the conspecific i.e. a vehicle treated rat of the same species, around the arena; • Avoidances: actively turning away when approached by the conspecific animal; • Investigation of object: exploration of object placed in centre of the arena; and • Locomotor activity is recorded by counting the total number of sectors (i.e. lines) crossed by the test rat.

Q: For `C=C(C)[C@@H]1CCC(C)=C[C@H]1c1c(O)cc(CCC)cc1O` [CBDV, Cannabidivarin], which “expression of increased inflammatory markers (GFAP, CD11b, TNFα) in hippocampus” value ([1]; VPA-exposed male rats, chronic CBDV 20 mg/kg i.p.) is on record?
A: completely normalised

Q: What about the “expression of inflammatory markers in hippocampus” value ([1]; control rats, chronic CBDV) of the same molecule?
A: no effect

Q: And the clasping duration [2]?
A: significantly reduced

Q: What about the “duration of immobility time” value [3] of the same molecule?
A: significantly reduced

Q: And the “PCP effects on social interaction (sniffing, following, avoiding)” value [4]?
A: reverse these effects in a statistically significant manner

Q: What about the “time spent avoiding the other rat” value ([4]; CBDV 20 mg/kg) of the same molecule?
A: reduce

Q: And the “time spent following the other rat” value ([4]; CBDV 20 mg/kg)?
A: increased

Q: And the “time spent sniffing the other rat” value ([4]; CBDV 10 and 20 mg/kg)?
A: significantly increased

Reference: patent US20190070128A1, “USE OF CANNABIDIVARIN IN THE TREATMENT OF AUTISM SPECTRUM DISORDER, ASSOCIATED DISORDERS AND SCHIZOPHRENIA” (GW Research Limited, priority 2016, published 2019)
